Test results reported in PubChem BioAssay (NCI).
Several values for one entry are separate records, joined by “and”; a condition that tells them apart may be missing. Identical values can stand only once.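 Method: 48-hour compound exposure of cells in 96-well plates, five concentrations, linear interpolation of endpoints. GI50: concentration for 50% inhibition of growth. Definition used: TGI = concentration required for complete inhibition of growth.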

Key:
Experiment in all cases: NCI-60 cell line screen, 48 h
[1] = test system: CAKI-1 renal
[2] = test system: OVCAR-4 ovarian
[3] = test system: KM12 colon
[4] = test system: OVCAR-3 ovarian
[5] = test system: T-47D breast
[6] = test system: SW-620 colon
[7] = test system: TK-10 renal
[8] = test system: OVCAR-8 ovarian
[9] = test system: NCI/ADR-RES ovarian
[10] = test system: M14 melanoma
[11] = test system: HCT-15 colon
[12] = test system: A549 NSCLC
[13] = test system: SK-MEL-28 melanoma
[14] = test system: MDA-MB-435
[15] = test system: SK-MEL-5 melanoma
[16] = test system: NCI-H23 lung
[17] = test system: HS 578T breast
[18] = test system: SK-OV-3 ovarian
[19] = test system: ACHN renal
[20] = test system: U251 CNS
[21] = test system: 786-0 renal
[22] = test system: A498 renal
[23] = test system: SNB-75 CNS
[24] = test system: UACC-257 melanoma
[25] = test system: HOP-62 NSCLC
[26] = test system: SN12C renal
[27] = test system: EKVX NSCLC
[28] = test system: SF-268 CNS
[29] = test system: PC-3 prostate
[30] = test system: IGROV1 ovarian
[31] = test system: CCRF-CEM leukemia
[32] = test system: MOLT-4 leukemia
[33] = test system: MALME-3M melanoma
[34] = test system: HOP-92 NSCLC
[35] = test system: SF-295 CNS
[36] = test system: HCC-2998 colon
[37] = test system: UO-31 renal
[38] = test system: RXF 393 renal
[39] = test system: SK-MEL-2 melanoma
[40] = test system: DU-145 prostate
[41] = test system: K-562 leukemia
[42] = test system: SNB-19 CNS
[43] = test system: NCI-H226 lung
[44] = test system: NCI-H522 lung
[45] = test system: SR leukemia
[46] = test system: LOX IMVI melanoma
[47] = test system: COLO 205 colon
[48] = test system: SF-539 CNS
[49] = test system: MCF7 breast
[50] = test system: NCI-H460 lung
[51] = test system: HL-60(TB) leukemia
[52] = test system: OVCAR-5 ovarian
[53] = test system: HT29 colon
[54] = test system: HCT-116 colon
[55] = test system: UACC-62 melanoma
[56] = test system: MDA-MB-231 breast
[57] = test system: BT-549 breast
[58] = test system: RPMI-8226 leukemia

CN(C)CCOc1ccc(-c2nc(-c3ccc4c(c3)CC/C4=N\O)c(-c3ccncc3)[nH]2)cc1
GI50 [1]: 5.18 µM and 16.9 µM | TGI [1]: 19.5 µM and 44.8 µM | GI50 [2]: 4.72 µM and 6.69 µM | TGI [2]: 9.74 µM and 37.8 µM | GI50 [3]: 4.39 µM and 2.65 µM | TGI [3]: 8.07 µM and 6.18 µM | GI50 [4]: 4.42 µM and 4.34 µM | TGI [4]: 8.49 µM and 8.94 µM | GI50 [5]: 4.8 µM and 7.63 µM | TGI [5]: 9.55 µM and 30.6 µM | GI50 [6]: 4.07 µM and 2.15 µM | TGI [6]: 7.72 µM and 4.78 µM | GI50 [7]: 5.66 µM and 5.27 µM | TGI [7]: 10.1 µM and 10.4 µM | GI50 [8]: 4.84 µM and 3.2 µM | TGI [8]: 10.1 µM and 8.96 µM | GI50 [9]: 14.1 µM and 62.7 µM | TGI [9]: 25 µM and > 100 µM | GI50 [10]: 0.0258 µM and 0.054 µM | TGI [10]: 2.14 µM and 3.69 µM | GI50 [11]: 9.22 µM and 15.5 µM | TGI [11]: 25 µM and 57.4 µM | GI50 [12]: 4.76 µM and 6.36 µM | TGI [12]: 9.68 µM and 32.7 µM | GI50 [13]: 0.0188 µM and 0.029 µM | TGI [13]: 3.26 µM and 1.85 µM | TGI [14]: 5.17 µM and 41.2 µM | GI50 [15]: 3.31 µM and 5.46 µM | TGI [15]: 6.81 µM and 19.9 µM | GI50 [16]: 3.23 µM and 3.98 µM | TGI [16]: 7.85 µM and 25.7 µM | GI50 [17]: 3.96 µM and 25.7 µM | TGI [17]: 9.4 µM and 65.5 µM | GI50 [18]: 3.67 µM and 9.66 µM | TGI [18]: 7.52 µM and 22.1 µM | GI50 [19]: 4.79 µM and 5.03 µM | TGI [19]: 9.01 µM and 22 µM | GI50 [20]: 4.83 µM and 2.35 µM | TGI [20]: 9.15 µM and 4.69 µM | GI50 [21]: 5.02 µM and 2.22 µM | TGI [21]: 9.83 µM and 4.17 µM | GI50 [22]: 4.68 µM and 8.84 µM | TGI [22]: 9.57 µM and 27.2 µM | GI50 [23]: 0.403 µM and 1.11 µM | TGI [23]: 5.48 µM and 11 µM | GI50 [24]: 0.0456 µM and 0.0489 µM | TGI [24]: 1.07 µM and 2.74 µM | GI50 [25]: 4.3 µM and 4.48 µM | TGI [25]: 9.23 µM and 13.1 µM | GI50 [26]: 4.68 µM and 9.41 µM | TGI [26]: 8.83 µM and 25.9 µM | GI50 [27]: 4.7 µM and 9 µM | TGI [27]: 11 µM and 38.4 µM | GI50 [28]: 4.38 µM and 7.26 µM | TGI [28]: 9.05 µM and 15.4 µM | GI50 [29]: 4.09 µM and 5.66 µM | TGI [29]: 8.12 µM and 13.7 µM | GI50 [30]: 4.38 µM and 18.6 µM | TGI [30]: 9.35 µM and 65.6 µM | GI50 [31]: 4.32 µM and 2.43 µM | TGI [31]: 11.3 µM and 10.2 µM | GI50 [32]: 5.74 µM and 3.53 µM | TGI [32]: 12.2 µM and 25.7 µM | GI50 [33]: 0.00596 µM and 0.0186 µM | GI50 [34]: 0.71 µM and 1.15 µM | TGI [34]: 4.29 µM and 24.1 µM | GI50 [35]: 4.6 µM and 8.82 µM | TGI [35]: 9.42 µM and 21.4 µM | GI50 [36]: 4.74 µM and 8.01 µM | TGI [36]: 8.89 µM and > 27.8 µM | GI50 [37]: 5.61 µM and 18.8 µM | TGI [37]: 10 µM and 45.6 µM | GI50 [38]: 4.37 µM and 4.3 µM | TGI [38]: 9.58 µM and 8.17 µM | GI50 [39]: 0.108 µM and 0.367 µM | GI50 [40]: 4.11 µM and 9.02 µM | TGI [40]: 7.82 µM and 17.4 µM | GI50 [41]: 4.74 µM and 1.95 µM | TGI [41]: 10.5 µM and 4.2 µM | GI50 [42]: 5.29 µM and 5.01 µM | TGI [42]: 10.8 µM and 9.56 µM | GI50 [43]: 4.72 µM and 8.03 µM | TGI [43]: 9.77 µM and 17.1 µM | GI50 [44]: 3.9 µM and 5.5 µM | TGI [44]: 9.59 µM and 21 µM | GI50 [45]: 5.48 µM and 3.64 µM | TGI [45]: 16.6 µM and 14.5 µM | GI50 [46]: 0.934 µM and 1.51 µM | TGI [46]: 6.46 µM | GI50 [47]: 0.00987 µM and 0.0293 µM | TGI [47]: 3.1 µM and 5.06 µM | GI50 [48]: 4.74 µM and 4.07 µM | TGI [48]: 9.3 µM and 7.77 µM | GI50 [49]: 4.52 µM and 3.55 µM | TGI [49]: 9.03 µM and 16.1 µM | GI50 [50]: 4.14 µM and 4.55 µM | TGI [50]: 8.24 µM and 17.2 µM | GI50 [51]: 2.83 µM and 2.45 µM | TGI [51]: 7.44 µM and 14.5 µM | GI50 [52]: 3.7 µM and 1.61 µM | TGI [52]: 7.55 µM and 6.27 µM | GI50 [53]: 0.127 µM and 0.29 µM | TGI [53]: 4.53 µM and 3.49 µM | GI50 [54]: 3.29 µM and 1.84 µM | TGI [54]: 7.8 µM and 6.72 µM | GI50 [55]: 0.0177 µM and 0.0275 µM | TGI [55]: 2.55 µM and 0.876 µM | GI50 [56]: 3.27 µM and 1.63 µM | TGI [56]: 7.26 µM and 4.88 µM | GI50 [57]: 4.73 µM and 15 µM | TGI [57]: 9.3 µM and 44.1 µM | GI50 [58]: 5.75 µM and 16.8 µM | TGI [58]: 13.7 µM and 77 µM
